Laboratory results as given in patent US11834698B2, “Process for determining enzyme activity in a cell by activity-based reporter gene technology (ABRGT)” (INDIAN INSTITUTE OF SCIENCE EDUCATION AND RESEARCH, priority 2018, dated 2023).
Peptide text beside a SMILES is read from it. * marks the point of attachment. Cbz = O=C(OCc1ccccc1)*; CH2F = FC*

Target: T1, caspase-3 GFPspark (Homo sapiens, UniProt P42574)
T1 sequence (P42574 29-175 limits assumed): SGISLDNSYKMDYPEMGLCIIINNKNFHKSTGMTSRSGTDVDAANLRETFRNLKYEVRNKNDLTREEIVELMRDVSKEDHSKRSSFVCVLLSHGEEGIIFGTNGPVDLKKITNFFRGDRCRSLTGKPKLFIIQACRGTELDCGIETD
T1 sequence (P42574 176-277 limits assumed): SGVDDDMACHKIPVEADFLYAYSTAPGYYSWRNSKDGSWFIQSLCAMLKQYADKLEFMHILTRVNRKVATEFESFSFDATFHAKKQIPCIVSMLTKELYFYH
Test: AbRGT FRET imaging / acceptor photobleaching, caspase-3 GFPspark in MCF-7 cells
Type: cell-based
Design: host or cells: MCF-7, HeLa, HEK-293
Details: for effect of inhibitor on FRET signal: STS 4 h
Experimental: FIG. 2 depicts (a) a schematic representation of AbRGT in determining the specific activation of caspase-3 GFPspark tagged enzyme by FRET effect utilizing Rh-VAD-FMK (probe 1). (b) The fluorescence signal was collected in GFP, FRET and Rhodamine (Rh) channels. MCF-7 cells transfected with caspase-3 GFPspark treated with (i) 1 μM STS for 4 h or (ii) 1 μg/ml TRAIL for 5 h and then labelled with probe 1. (iii) Un-transfected MCF-7 cells were treated with 1 μM STS for 4 h and then labelled with the probe 1. MCF-7 cells transfected with enhanced green fluorescent protein (EGFP) plasmid treated (iv) with 1 μM STS or (v) without STS for 4 h and then labelled with probe 1, scale bar, […]. (c) FRET validation between GFPspark and rhodamine fluorophore using the acceptor photobleaching method. Images for GFP and rhodamine fluorescence signals were collected in GFP and FRET channels pre- and post-bleaching of rhodamine signals. (d) Quantification of change in GFP fluorescence intensity after rhodamine photo-bleaching in both unbleached control region and rhodamine bleached region, region of interest (ROI), area under the white square. Error bar represents the s.e.m for n=15 cells (*P<0.00001). Scale bar, 10 μm. a.u., arbitrary units.
FIGS. 6A and 6B depict time dependent activation of caspase-3 GFPspark in MCF-7 cells upon STS (1 μM) induction. MCF-7 cells transfected with 2 μg of caspase-3 GFPspark plasmid and treated with 1 μM of STS for 2, 6, and 8 h. Cells were then labelled with the probe 1 for an additional 2 h. […] FRET validation between GFPspark and rhodamine fluorophore using the acceptor photobleaching method for the MCF-7 cells with STS induction for 2, 6 and 8 h. I=intensity (a.u.), arbitrary units. The calculated FRET efficiency for 2, 6 and 8 h are 38, 43, and 36% respectively.
FIGS. 7A and 7B depict applying AbRGT for specific detection of active caspase-3 GFPspark using the Rh-DEVD-FMK (probe 2). Caspase-3 GFPspark (2 μg) overexpressing MCF-7 cells were treated with 1 μM of STS for 4 h and labelled with the probe 2 (1 μM). […] The rise in GFPspark intensity after rhodamine photobleaching in the background is insignificant as compared to the ROI, i.e., 68 a.u., with a calculated FRET efficiency of 35%.
FIG. 12 depicts confocal images of MCF-7 cells in GFP, FRET and Rh channel. Caspase-3 GFPspark transfected MCF-7 cells were treated with STS for 4 h and labelled (a) with or (b) without probe 1. Cells were pre-treated with (c) Z-VAD-FMK (50 μM) and (d) Q-VD-OPh (50 μM) pan-caspase inhibitors 3 h before the probe labelling.
Plasmids and transient transfection: GFPspark tagged plasmids; caspase-3 GFPspark tag (Cat: HG10050-ACG), caspase-7 GFPspark tag (HG10049-ACG), caspase-8 GFPspark (HG10078-ACG), caspase-9 GFPspark (HG11151-ACG) and cathepsin B GFPspark (HG10483-ACG) were procured from Sino Biological. For transfection, cells were seeded in a 6-well plate at a density of 0.4 million cells/well. At 60-70% confluency, cells were transiently transfected for 24 h at 37° C. with 1 μg of the GFPspark tagged plasmid DNA construct mixed with 5 μL of Lipofectamine 2000 (Invitrogen) according to the manufacturer's instructions. 24 h post-transfection, cells were visualized under the GFP filter for GFPspark expression under fluorescence microscope at 10× magnification.
Labelling of active caspases in apoptotic cells with FABP: After 24 h of transfection, cells were treated with STS (1 μM) drug or TRAIL (1 μg/ml) for apoptotic induction and incubated for 2, 4, 6 and 8 h at 37° C. in a humidified atmosphere of 5% CO2/95% air. Cells were gently scraped off from the surface at the end of apoptotic induction and centrifuged at 3000 rpm for 5 min. The cell pellet was resuspended in 300 μL of fresh DMEM containing 1 μM of probe for probe 2 and incubated for additional 2 h at 37° C. in a humidified atmosphere of 5% CO2. Cells were again centrifuged at 3000 rpm for 5 mins, and the supernatant was decanted. […]

[1] = MCF-7, inhibitor 50 μM pre-treatment before probe 1 labelling

signal in Rh channel in presence of inhibitor [1]	effect of inhibitor on FRET signal [1]	Molecule	calculated FRET efficiency (MCF-7, STS 1 μM 2 h)	rise in GFP intensity after rhodamine photobleaching in ROI (MCF-7, STS 1 μM 4 h, probe 1 μM)	calculated FRET efficiency (MCF-7, STS 1 μM 4 h, probe 1 μM 2 h, acceptor photobleaching)	calculated FRET efficiency (MCF-7, STS 1 μM 6 h)	calculated FRET efficiency (MCF-7, STS 1 μM 8 h)
distinct punctate labelling was detected	abolished	CC(C)[C@H](NC(=O)c1ccc2ccccc2n1)C(=O)N[C@@H](CC(=O)O)C(=O)COc1c(F)cccc1F [Q-VD-OPh]					
		Rhodamine-VAD-fluoromethyl ketone [probe 1]	38%	58±3 a.u.	35±1%	43%	36%
	completely abolished	COC(=O)C[C@H](NC(=O)[C@H](C)NC(=O)[C@@H](NC(=O)OCc1ccccc1)C(C)C)C(=O)CF [Z-VAD-FMK] (Cbz-Val-Ala-Asp(OMe)-CH2F)					
